Experimental data from US20240059691A1 (KALVISTA PHARMACEUTICALS LIMITED, priority 2020, published 2024).
Like-named read-outs stand apart in the source and are kept apart here.

Assays:
Human Factor XIIa = Human Factor XIIa (Homo sapiens (Human), UniProt P00748); assay: Determination of FXIIa inhibition (fluorogenic substrate H-DPro-Phe-Arg-AFC, IC50 assay); type: biochemical; conditions: substrate H-DPro-Phe-Arg-AFC at Km, 25° C.; class scale A-G
Outline: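 Human FXIIa incubated at 25° C with fluorogenic substrate H-DPro-Phe-Arg-AFC at its Km concentration and varying compound concentrations. Fluorescence release monitored over 5 min at 25° C; linear rate expressed as % of uninhibited activity to derive IC50.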

Trypsin = assay: Determination of related protease inhibition: Trypsin (fluorogenic substrate at Km); type: biochemical, human; conditions: 25° C.
Experimental: (§1) Determination of Related Protease Inhibition
(§2) In vitro inhibition of related proteases was determined using an ([…] assay based on standard literature methods (see e.g. Shori et al., Biochem. Pharmacol., 1992, 43, 1209; Bouckaert et al., European Journal of Medicinal Chemistry 110 (2016) 181). Human serine protease enzymes Plasma Kallikrein, KLK1, FXa, Plasmin, Thrombin and Trypsin were assayed for enzymatic activity using an appropriate fluorogenic substrate at Km concentration, FXIa at fixed substrate concentration of 100 μM, and various concentrations of the test compound. Protease activity was measured by monitoring the accumulation of liberated fluorescence from the substrate over […]. The linear rate of fluorescence increase per minute was expressed as percentage (%) activity. IC50 values were calculated as the concentration of inhibitor giving 50% inhibition of the uninhibited enzyme activity (100%).

Plasmin = Plasmin (Homo sapiens (Human), UniProt P00747); assay: Determination of related protease inhibition: Plasmin (fluorogenic substrate at Km); type: biochemical; conditions: 25° C.
Experimental: as §1, §2

Thrombin = Thrombin (Homo sapiens (Human), UniProt P00734); assay: Determination of related protease inhibition: Thrombin (fluorogenic substrate at Km); type: biochemical; conditions: 25° C.
Outline: (§3)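 Human enzyme incubated with test compound over a concentration range and a fluorogenic substrate at its Km concentration. Liberated fluorescence monitored over 5 min at 25 °C; linear rate per minute expressed as % of uninhibited activity, and IC50 taken as the concentration giving 50% inhibition.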

FXIa = FXIa (Homo sapiens (Human), UniProt P03951); assay: Determination of related protease inhibition: FXIa (fixed substrate concentration of 100 μM); type: biochemical; conditions: 25° C.
Experimental: as §1, §2

KLK1 = KLK1 (Homo sapiens (Human), UniProt P06870); assay: Determination of related protease inhibition: KLK1 (fluorogenic substrate at Km); type: biochemical; conditions: 25° C.
Outline: as §3

Plasma Kallikrein = Plasma Kallikrein (Homo sapiens (Human), UniProt P03952); assay: Determination of related protease inhibition: Plasma Kallikrein (fluorogenic substrate at Km); type: biochemical; conditions: 25° C., read-out: IC50 (human PKal)
Outline: as §3

FXa = FXa (Homo sapiens (Human), UniProt P00742); assay: Determination of related protease inhibition: FXa (fluorogenic substrate at Km); type: biochemical; conditions: 25° C.
Outline: as §3

[1] = Pharmacokinetics following a single intravenous dose and a single oral dose in male Sprague-Dawley rats (oral bioavailability, half-life); type: in vivo; conditions: rat, plasma, 10% DMSO/10% Cremophor EL/80% SWFI; for bioavailability: read-out: F % (oral bioavailability)
Experimental: Pharmacokinetic studies of the compounds in Table 16 were performed to assess the pharmacokinetics following a single intravenous dose and a single oral dose in male Sprague-Dawley rats. Two rats were given a single intravenous dose of 1 mL/kg of a nominal 1 mg/mL (1 mg/kg) composition of test compound in 10% DMSO/10% Cremophor EL/80% SWFI vehicle. Example 2191 was dosed at 1 mL/kg of a nominal 2 mg/mL (2 mg/kg) using the same vehicle.
Two rats were given a single oral dose of 5 mL/kg of a nominal 1 mg/mL (5 mg/kg) composition of test compound in 10% DMSO/10% Cremophor EL/80% SWFI vehicle. Example 2191 was dosed at 5 mL/kg of a nominal 2 mg/mL (10 mg/kg) using the same vehicle.
Following intravenous dosing, blood samples were collected over a period of 12 h. Sample times were 2, 5, 15 and 30 min then 1, 2, 4, 6, and 12 h. Following oral dosing, blood samples were collected over a period of 24 h. Sample times were 5, 15 and 30 min then 1, 2, 4, 6, 8, 12 and 24 h.
Following collection, blood samples were centrifuged and the plasma fraction analysed for concentration of test compound by LCMS. Oral bioavailability and half-life calculations from these studies were obtained using Phoenix WinNonlin (v8.0) and are shown below: […]

Chain of Plasma Kallikrein (P03952 391-638): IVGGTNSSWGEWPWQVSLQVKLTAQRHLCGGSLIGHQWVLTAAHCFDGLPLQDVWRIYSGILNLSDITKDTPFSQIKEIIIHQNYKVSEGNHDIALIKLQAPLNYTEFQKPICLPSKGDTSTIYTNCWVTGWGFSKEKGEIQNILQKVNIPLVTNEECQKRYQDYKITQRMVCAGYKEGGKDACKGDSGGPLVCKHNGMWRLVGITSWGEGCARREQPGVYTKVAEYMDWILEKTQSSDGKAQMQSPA
Chain of Plasma Kallikrein (P03952 20-390 partner): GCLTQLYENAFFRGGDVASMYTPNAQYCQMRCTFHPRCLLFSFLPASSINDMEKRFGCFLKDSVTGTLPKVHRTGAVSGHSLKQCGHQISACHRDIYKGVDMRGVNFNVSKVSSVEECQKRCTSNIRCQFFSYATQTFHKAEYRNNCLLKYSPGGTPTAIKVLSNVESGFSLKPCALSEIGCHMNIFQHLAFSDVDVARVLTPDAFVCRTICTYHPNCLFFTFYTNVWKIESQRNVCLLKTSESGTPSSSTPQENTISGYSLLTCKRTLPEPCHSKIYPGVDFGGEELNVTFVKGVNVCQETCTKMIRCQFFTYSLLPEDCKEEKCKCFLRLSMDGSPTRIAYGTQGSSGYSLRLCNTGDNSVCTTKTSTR
Chain of KLK1 (P06870 25-262): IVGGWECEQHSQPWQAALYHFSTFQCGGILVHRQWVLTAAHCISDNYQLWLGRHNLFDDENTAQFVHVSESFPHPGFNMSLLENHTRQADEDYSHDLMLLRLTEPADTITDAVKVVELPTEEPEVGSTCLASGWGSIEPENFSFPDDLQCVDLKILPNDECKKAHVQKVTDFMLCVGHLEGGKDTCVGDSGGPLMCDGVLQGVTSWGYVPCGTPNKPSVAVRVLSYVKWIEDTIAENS
Chain of FXIa (P03951 388-625): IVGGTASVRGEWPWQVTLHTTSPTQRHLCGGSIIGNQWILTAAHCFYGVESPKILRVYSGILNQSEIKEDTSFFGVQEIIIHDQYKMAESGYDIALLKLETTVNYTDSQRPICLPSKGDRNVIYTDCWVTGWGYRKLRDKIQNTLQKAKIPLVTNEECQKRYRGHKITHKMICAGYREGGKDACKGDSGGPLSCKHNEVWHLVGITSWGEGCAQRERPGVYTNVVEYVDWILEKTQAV
Chain of FXIa (P03951 19-387 partner): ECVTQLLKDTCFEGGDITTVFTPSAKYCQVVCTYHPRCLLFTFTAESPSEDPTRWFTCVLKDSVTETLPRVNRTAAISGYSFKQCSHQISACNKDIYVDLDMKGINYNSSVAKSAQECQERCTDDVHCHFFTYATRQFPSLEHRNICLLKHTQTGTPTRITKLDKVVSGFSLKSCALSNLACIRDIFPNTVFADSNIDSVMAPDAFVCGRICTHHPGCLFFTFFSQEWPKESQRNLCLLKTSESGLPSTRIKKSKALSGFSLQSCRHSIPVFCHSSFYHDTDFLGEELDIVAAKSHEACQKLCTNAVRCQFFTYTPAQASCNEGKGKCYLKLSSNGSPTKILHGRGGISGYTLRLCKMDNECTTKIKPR
Chain of Plasmin (P00747 581-810): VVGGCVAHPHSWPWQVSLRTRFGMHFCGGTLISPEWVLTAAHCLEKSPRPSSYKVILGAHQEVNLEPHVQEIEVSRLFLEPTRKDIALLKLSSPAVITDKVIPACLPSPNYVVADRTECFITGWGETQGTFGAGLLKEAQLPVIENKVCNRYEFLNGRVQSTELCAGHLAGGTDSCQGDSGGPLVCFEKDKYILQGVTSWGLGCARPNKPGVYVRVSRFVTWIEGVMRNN
Chain of Plasmin (P00747 97-580 partner): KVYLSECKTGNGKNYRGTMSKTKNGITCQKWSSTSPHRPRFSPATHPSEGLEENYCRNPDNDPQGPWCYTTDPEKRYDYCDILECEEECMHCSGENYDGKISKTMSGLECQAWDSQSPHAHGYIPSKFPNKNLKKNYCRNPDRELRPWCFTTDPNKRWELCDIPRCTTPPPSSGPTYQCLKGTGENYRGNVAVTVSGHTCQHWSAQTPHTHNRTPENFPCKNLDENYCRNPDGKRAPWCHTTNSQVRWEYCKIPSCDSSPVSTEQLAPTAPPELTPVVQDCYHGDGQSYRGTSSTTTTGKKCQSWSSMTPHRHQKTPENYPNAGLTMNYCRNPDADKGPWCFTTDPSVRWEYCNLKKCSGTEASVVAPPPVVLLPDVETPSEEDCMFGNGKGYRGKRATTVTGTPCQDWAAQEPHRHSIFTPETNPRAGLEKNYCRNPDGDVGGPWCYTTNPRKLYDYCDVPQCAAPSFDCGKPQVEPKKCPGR
Chain of FXa (P00742 235-488): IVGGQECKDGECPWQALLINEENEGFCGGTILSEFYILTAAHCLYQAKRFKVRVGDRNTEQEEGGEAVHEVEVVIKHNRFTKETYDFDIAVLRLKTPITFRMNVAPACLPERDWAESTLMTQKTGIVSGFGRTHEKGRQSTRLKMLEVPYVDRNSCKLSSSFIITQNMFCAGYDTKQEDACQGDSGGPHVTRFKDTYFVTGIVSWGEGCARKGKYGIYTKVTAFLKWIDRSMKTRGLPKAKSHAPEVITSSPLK
Chain of FXa (P00742 41-179 partner): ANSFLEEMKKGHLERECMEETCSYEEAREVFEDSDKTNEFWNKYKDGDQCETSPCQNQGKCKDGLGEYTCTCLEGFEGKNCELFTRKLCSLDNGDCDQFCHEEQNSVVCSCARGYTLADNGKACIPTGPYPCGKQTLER
Chain of Human Factor XIIa (P00748 373-615): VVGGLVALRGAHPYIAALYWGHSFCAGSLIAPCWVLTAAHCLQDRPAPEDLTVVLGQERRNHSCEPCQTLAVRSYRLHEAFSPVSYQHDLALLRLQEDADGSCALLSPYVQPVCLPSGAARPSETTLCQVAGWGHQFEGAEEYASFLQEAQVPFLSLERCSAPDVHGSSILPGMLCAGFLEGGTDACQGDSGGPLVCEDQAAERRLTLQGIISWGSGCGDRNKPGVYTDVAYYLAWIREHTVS

Row | IC50 (Human Factor XIIa) [µM] | IC50 (Trypsin) [µM] | IC50 (Plasmin) [µM] | IC50 (Thrombin) [µM] | IC50 (FXIa) [µM] | IC50 (KLK1) [µM] | IC50 (Plasma Kallikrein) [µM] | IC50 (FXa) [µM] | half-life [1] [h] | bioavailability [1] [%] | bioavailability ([1]; 5 mg/kg) [%] | SMILES
1 | 0.01 to 0.1 | 10 to 40 | > 40 | > 40 | 10 to 40 | 3 to 10 | 3 to 10 | 3 to 10 |  |  |  | Cc1cn2c(n1)CC(COc1cc(CNc3cccc4c(N)nccc34)ccn1)CC2 (single isomer, unassigned) [Example 4446, (S*)-N5-((2-((2-methyl-5,6,7,8-tetrahydroimidazo[1,2-a]pyridin-7-yl)methoxy)pyridin-4-yl)methyl)isoquinoline-1,5-diamine]
2 | 1 to 3 | > 40 | > 40 | 10 to 40 | > 40 | 10 to 40 | 10 to 40 | 0.3 to 1 |  |  |  | CN1CCC(COc2cc(CNc3cc4ccnc(N)c4cn3)ccn2)CC1 [Example 4271, 6-N-({2-[(1-methylpiperidin-4-yl)methoxy]pyridin-4-yl}methyl)-2,7-naphthyridine-1,6-diamine]
3 | 0.1 to 0.3 |  |  | > 40 | > 40 |  | 10 to 40 | 10 to 40 | 4.39 | 15.8 |  | CN1CCC(OCc2ccc(CNc3cccc4c(N)nccc34)cc2)CC1 [Example 2186, N5-(4-(((1-methylpiperidin-4-yl)oxy)methyl)benzyl)isoquinoline-1,5-diamine]
4 | 0.01 to 0.1 |  |  | > 40 |  | 10 to 40 | > 40 | 10 to 40 | 8.76 | 4.9 |  | CN1CCC(CNc2ccc(CNc3ccnc4[nH]c(Cl)cc34)cn2)CC1 [Example 1243, 2-chloro-N-((6-(((1-methylpiperidin-4-yl)methyl)amino)pyridin-3-yl)methyl)-1H-pyrrolo [2,3-b]pyridin-4-amine]
5 | 0.3 to 1 |  | > 40 | 1 to 3 |  | 10 to 40 | 10 to 40 | 3 to 10 |  |  |  | CN1CCC(Oc2cc(CNc3ccc4c(N)nccc4c3)ccn2)CC1 [Example 4259, N6-((2-((1-methylpiperidin-4-yl)oxy)pyridin-4-yl)methyl)isoquinoline-1,6-diamine]
6 | 0.1 to 0.3 |  |  |  |  |  | > 4 |  | 10.1 | 8.3 |  | CC(C)N1CCC(COc2cc(CNc3cccc4c(N)nccc34)ccn2)CC1 [Example 4299, N5-[[2-[(1-isopropyl-4-piperidyl)methoxy]-4-pyridyl]methyl]isoquinoline-1,5-diamine]
7 | 0.3 to 1 |  |  | 10 to 40 |  | 1 to 3 | > 40 | > 40 | 2.52 | 32.1 |  | Nc1nccc2c(NCc3ccc(N4CCn5c(nnc5C(F)F)C4)nc3)cccc12 [Example 1274, N5-((6-(3-(Difluoromethyl)-5,6-dihydro-[1,2,4]triazolo[4,3-a]pyrazin-7(8H)-yl)pyridin-3-yl)methyl)isoquinoline-1,5-diamine]

The remaining lines, values behind:

Row | SMILES | IC50 (Human Factor XIIa) [µM] | IC50 (Trypsin) [µM] | IC50 (Plasmin) [µM] | IC50 (Thrombin) [µM] | IC50 (FXIa) [µM] | IC50 (KLK1) [µM] | IC50 (Plasma Kallikrein) [µM] | IC50 (FXa) [µM] | half-life [1] [h] | bioavailability [1] [%] | bioavailability ([1]; 5 mg/kg) [%]
8 | CN1CCC(COc2cc(CNc3cccc4c(N)nccc34)ccn2)CC1 [Example 4260, N5-((2-((1-methylpiperidin-4-yl)methoxy)pyridin-4-yl)methyl)isoquinoline-1,5-diamine] | 0.1 to 0.3 |  |  | > 20 | > 20 |  | > 20 | > 20 | 9.98 | 13.6 | 
9 | CN1CCC(Oc2ccc(CNc3cccc4c(N)nccc34)cc2)CC1 [Example 1002, 5-N-({4-[(1-methylpiperidin-4-yl)oxy]phenyl}methyl)isoquinoline-1,5-diamine] | 0.1 to 0.3 | > 40 | > 40 | > 40 |  |  |  | 10 to 40 |  |  | 
10 | Cn1ccc(COc2cc(CNc3cccc4c(N)nccc34)ccn2)cc1=O [Example 4301, 4-[[4-[[(1-Amino-5-isoquinolyl)amino]methyl]-2-pyridyl]oxymethyl]-1-methyl-pyridin-2-one] | 0.3 to 1 |  |  |  |  |  | > 4 |  | 2.19 | 8.5 | 
11 | Cc1cc(N2CCn3c(nnc3C(F)(F)F)C2)ncc1CNc1cccc2c(N)nccc12 [Example 1282, N5-((4-Methyl-6-(3-(trifluoromethyl)-5,6-dihydro-[1,2,4]triazolo[4,3-a]pyrazin-7(8H)-yl)pyridin-3-yl)methyl)isoquinoline-1,5-diamine] | 0.01 to 0.1 |  |  |  |  | 3 to 10 | > 40 | > 4 | 2.34 | 53.2 | 
12 | CN1CCC(Oc2ccc(CNc3ccc4c(N)nccc4c3)cn2)CC1 [Example 1001, 6-N-({6-[(1-methylpiperidin-4-yl)oxy]pyridin-3-yl}methyl)isoquinoline-1,6-diamine] | 0.3 to 1 | 10 to 40 | > 40 | 1 to 3 |  |  | 1 to 3 | 1 to 3 |  |  | 
13 | FC(F)c1nnc2n1CCN(c1ccc(CNc3ccnc4[nH]c(Cl)cc34)cn1)C2 [Example 1277, 2-chloro-N-((6-(3-(difluoromethyl)-5,6-dihydro-[1,2,4]triazolo[4,3-a]pyrazin-7(8H)-yl)pyridin-3-yl)methyl)-1H-pyrrolo[2,3-b]pyridin-4-amine] | 0.3 to 1 |  |  | 10 to 40 |  | 10 to 40 | > 40 | > 40 | 1.35 | 25 | 
14 | Cc1cc(N2CCn3c(nnc3C(F)(F)F)C2C)ncc1CNc1cccc2c(N)nccc12 (single isomer, unassigned) [Example 1305, (S*)-N5-((4-methyl-6-(8-methyl-3-(trifluoromethyl)-5,6-dihydro-[1,2,4]triazolo[4,3-a]pyrazin-7(8H)-yl)pyridin-3-yl)methyl)isoquinoline-1,5-diamine] | 0.01 to 0.1 |  |  |  |  | > 4 |  |  | 4.04 | 79.4 | 
15 | CN1CCC(COc2cc(CNc3cccc4[nH]nc(Cl)c34)ccn2)CC1 [Example 4454, 3-chloro-N-((2-((1-methylpiperidin-4-yl)methoxy)pyridin-4-yl)methyl)-1H-indazol-4-amine] |  | > 40 | > 40 | > 40 | > 40 | 1 to 3 | > 100 | > 40 |  |  | 
16 | CN1CCC(OCc2ccc(CNc3cccc4c(N)nccc34)c(F)c2)CC1 [Example 2197, N5-(2-fluoro-4-(((1-methylpiperidin-4-yl)oxy)methyl)benzyl)isoquinoline-1,5-diamine] | 0.01 to 0.1 |  |  | > 20 | > 20 |  | > 20 | > 20 | 6.87 |  | 26.6
17 | Nc1nccc2c(NCc3ccc(OCC4CCn5ccnc5C4)nc3)cccc12 (single isomer, unassigned) [Example 1029, (R*)-N5-((6-((5,6,7,8-tetrahydroimidazo[1,2-a]pyridin-7-yl)methoxy)pyridin-3-yl)methyl)isoquinoline-1,5-diamine] | 0.1 to 0.3 |  |  | 10 to 40 |  | 3 to 10 | 10 to 40 | 10 to 40 | 6.18 | 9.7 | 
18 | CN1CCC(OCc2ccc(CNc3ccc4c(N)nccc4c3)c(F)c2)CC1 [Example 2191, N6-(2-fluoro-4-(((1-methylpiperidin-4-yl)oxy)methyl)benzyl)isoquinoline-1,6-diamine] | 0.1 to 0.3 |  |  | > 40 | > 40 |  | 10 to 40 | 10 to 40 | 9.02 | 22.8 | 
